Literature values, collected in US20200221696A1, “ACTIVE […] FORMULATION FOR I[…] AND OBTAINED PAINT” (priority 2018, published 2020).
“Also recorded” adds a separate entry of the source. Read-outs that look alike come from different tables or passages of the source.

Conditions: aqueous medium; for Decomposition time (Mean life): stability in words: pH

Structure (SMILES) | Decomposition time (Mean life): stability in words | Decomposition time (Mean life) (pH 9) | further results
CCOP(=S)(OCC)Oc1nc(Cl)c(Cl)cc1Cl [Chlorpyrifos] | Stable in neutral and slightly acid |  | Decomposition time (Mean life) (pH 10): 7 days
CC1(C)C(C=C(Cl)Cl)C1C(=O)OC(C#N)c1cccc(Oc2ccccc2)c1 (centres unmarked) [Cypermethrin] |  | 7 days | 
C=CCC1=C(C)C(OC(=O)C2C(C=C(C)C)C2(C)C)CC1=O [D-allethrin] | Stable at pH 5 after 31 days | (4.3 days) | Decomposition time (Mean life) (pH 7): 500 days
CC1(C)[C@H](C(=O)O[C@H](C#N)c2cccc(Oc3ccccc3)c2)[C@@H]1C=C(Br)Br [Deltamethrin] | more stable in medium acid solutions |  | Decomposition time (Mean life) (pH 7): 0.33 days
CCOP(=S)(OCC)Oc1cc(C)nc(C(C)C)n1 [Diazinon] |  | 136 days | Decomposition time (Mean life) (pH 5): 31 days; Decomposition time (Mean life) (pH 7.5): 185 days
O=C(NC(=O)c1c(F)cccc1F)Nc1ccc(Cl)cc1 [Diflubenzuron] | Stable in a pH range from 5 to 7; also recorded: Hydrolyzed at pH 9 |  | 
CCOC(=O)CC(SP(=S)(OC)OC)C(=O)OCC (centres unmarked) [Malathion] | Quickly hydrolyzed at pH over 7. The optimal pH |  | 
CC1(C)C(C=C(Cl)Cl)C1C(=O)OCc1cccc(Oc2ccccc2)c1 (centres unmarked) [Permethrin] | Stable at pH between 5 and 6. |  | 
CCN(CC)c1nc(C)cc(OP(=S)(OC)OC)n1 [Pirimiphos-methyl] |  |  | Decomposition time (Mean life) (pH 5): 7 days; Decomposition time (Mean life) (pH 8): 5 days
CC(COc1ccc(Oc2ccccc2)cc1)Oc1ccccn1 (centres unmarked) [Pyriproxifen] | Stable in pH between 4 and 9. |  | 
